Data reported in article PMC6160999, “Pharmacokinetics, Tissue Distribution and Excretion of a Novel Diuretic (PU-48) in Rats” (Pharmaceutics, 2018).
Like-named read-outs stand apart in the source and are kept apart here.

What was measured:
[1] = Plasma pharmacokinetics after single oral PU-48 SNEDDS; type: in vivo, rat; details: for AUC(0-inf) / AUC(0-t) / Cmax / Tmax / t1/2 / half-life: rat plasma, n=6
Experimental: The method for quantification PU-48 in rat samples (plasma, thirteen tissues, urine and bile) has been developed and validated in our preliminary experiment. Briefly, PU-48 was quantitative analyzed by the liquid chromatography-electrospray ionization source-triple quadrupole tandem mass spectrometer (LC-MS/MS) system, which consisted of the Shimazdu LC-20AD pumpers (Shimadzu, Kyoto, Japan), a 20 μL loop and a SPD-M20A PDA detector. Chromatographic separation was accomplished on a Shimazdu Inertsil ODS-4 C18 column (2.1 × 100 mm, 3 µm, Shimadzu) and coupled to the API4000 mass spectrometer detector equipped with the Analyst 1.6 software (AB Sciex, Redwood City, CA, USA). The monitored ion transitions were mass-to-charge ratio (m/z) 289.1 → 229.2 for PU-48 and m/z 385.3 → 267.1 for the internal standard under positive mode. The mobile phase consisted of (A) water, and (B) acetonitrile, both containing 0.05% formic acid using the following gradient elution: 0–2 min (20% B), 2–8 min (20–100% B), 8–9.5 min (100% B), 9.5–13 min (20% B). Sample of 5 μL was injected. The quantification analysis of PU-48 in plasma, urine, bile and tissues (liver, muscle, and adipose tissue) were evaluated for specificity, linearity, precision, accuracy and recovery (See Supplementary Materials Tables S1–S3).
After fasting overnight with free drinking water (12 h before the experiment), eighteen rats were divided randomly into three groups, and blood samples at each time point were collected from six rats. The rats were given three doses of PU-48 (3, 6, or 12 mg/kg, respectively, 1.2 mg/mL in the SNEDDS formulation) by oral gavage. Blood samples (0.3 mL) were collected from the ophthalmic venous plexus at the predose, 0.25, 0.5, 1, 2, 4, 6, 8, 12, 24, 36, and 48 h post-dosing (total 12 time points) in heparinized tubes. The blood samples were centrifuged at 2500 rpm (1200× g) for 15 min and the plasma was stored at −20 °C until analysis.
The non-compartmental analysis method was used to calculate the pharmacokinetic parameters of PU-48 using Drug and Statistical Version 3.0 (DAS 3.0) software (the Mathematical Pharmacology Committee, Chinese Pharmacological Society, Beijing, China). The maximum peak concentration of the drug in plasma (Cmax) and the time to reach the maximum concentration (Tmax) were obtained directly from the experimental data. The area under the plasma concentration-time curves from 0 to infinity (i.e., AUC0–∞) and from 0 to the time of the last quantifiable concentration (AUC0–t) was calculated by the trapezoidal summation. The terminal elimination rate constant (Ke) was derived from the slope of the linear regression curve by fitting the natural logarithms of the terminal concentrations versus time. The terminal elimination half-life (t1/2) was calculated by 0.693/Ke. The data from the quality control (QC) samples were examined by a one-way analysis of variance (ANOVA). All values were expressed as mean ± SD (Standard Deviation).

[2] = Urine and feces excretion after single oral PU-48 SNEDDS; type: in vivo; details: rat, oral PU-48 SNEDDS 12 mg/kg
[3] = plasma, rat, oral PU-48 SNEDDS 3 mg/kg
[4] = plasma, rat, oral PU-48 SNEDDS 6 mg/kg
[5] = plasma, rat, oral PU-48 SNEDDS 12 mg/kg

- concentration at 0.25 h [1, 3]: 11.9 ± 15.5 ng/mL
- concentration at 0.25 h [1, 4]: 51.1 ± 51.2 ng/mL
- concentration at 0.25 h [1, 5]: 91.1 ± 52 ng/mL
- concentration at 0.5 h [1, 3]: 12.6 ± 11.1 ng/mL
- concentration at 0.5 h [1, 4]: 52.9 ± 46.8 ng/mL
- concentration at 0.5 h [1, 5]: 94.3 ± 49.6 ng/mL
- concentration at 1 h [1, 3]: 11.8 ± 11.2 ng/mL
- concentration at 1 h [1, 4]: 48.3 ± 32.8 ng/mL
- concentration at 1 h [1, 5]: 74.8 ± 36.1 ng/mL
- concentration at 2 h [1, 3]: 13.8 ± 16.6 ng/mL
- concentration at 2 h [1, 4]: 16.8 ± 10.1 ng/mL
- concentration at 2 h [1, 5]: 19.7 ± 4.2 ng/mL
- concentration at 4 h [1, 3]: 1.1 ± 0.7 ng/mL
- concentration at 4 h [1, 4]: 2.3 ± 1.2 ng/mL
- concentration at 4 h [1, 5]: 4.3 ± 3.1 ng/mL
- concentration at 6 h [1, 3]: 0.3 ± 0.2 ng/mL
- concentration at 6 h [1, 4]: 1.2 ± 0.5 ng/mL
- concentration at 6 h [1, 5]: 2.1 ± 0.8 ng/mL
- concentration at 8 h [1, 3]: 0.5 ± 0.9 ng/mL
- concentration at 8 h [1, 4]: 0.6 ± 0.4 ng/mL
- concentration at 8 h [1, 5]: 1.5 ± 0.5 ng/mL
- concentration at 12 h [1, 3]: 0.1 ± 0.1 ng/mL
- concentration at 12 h [1, 4]: 0.3 ± 0.2 ng/mL
- concentration at 12 h [1, 5]: 1.1 ± 0.8 ng/mL
- concentration at 24 h [1, 4]: 0.3 ± 0.3 ng/mL
- concentration at 24 h [1, 5]: 0.1 ng/mL
- concentration at 36 h [1, 4]: 0.2 ± 0.1 ng/mL
- concentration at 36 h [1, 5]: 0.8 ± 0.9 ng/mL
- concentration at 48 h ([1]; plasma, 48 h, rat, oral PU-48 SNEDDS 12 mg/kg): 0.2 ng/mL
- AUC(0-inf) ([1]; oral PU-48 SNEDDS 3 mg/kg): 60.5 ± 38.5 ng·h/mL
- AUC(0-t) ([1]; oral PU-48 SNEDDS 3 mg/kg): 60 ± 38.3 ng·h/mL
- Cmax ([1]; oral PU-48 SNEDDS 3 mg/kg): 12.6 ± 11.1 ng/mL
- Tmax ([1]; oral PU-48 SNEDDS 3 mg/kg): 1.19 ± 0.94 h
- t1/2 ([1]; oral PU-48 SNEDDS 3 mg/kg): 7.14 ± 2.93 h
- AUC(0-inf) ([1]; oral PU-48 SNEDDS 6 mg/kg): 108 ± 52.5 ng·h/mL
- AUC(0-t) ([1]; oral PU-48 SNEDDS 6 mg/kg): 107 ± 53 ng·h/mL
- Cmax ([1]; oral PU-48 SNEDDS 6 mg/kg): 52.9 ± 46.8 ng/mL
- Tmax ([1]; oral PU-48 SNEDDS 6 mg/kg): 0.63 ± 0.31 h
- AUC(0-inf) ([1]; oral PU-48 SNEDDS 12 mg/kg): 181 ± 62.5 ng·h/mL
- AUC(0-t) ([1]; oral PU-48 SNEDDS 12 mg/kg): 179 ± 60.1 ng·h/mL
- Cmax ([1]; oral PU-48 SNEDDS 12 mg/kg): 94.3 ± 49.6 ng/mL
- t1/2 ([1]; oral PU-48 SNEDDS 12 mg/kg): 6.87 ± 3.49 h
- half-life ([1]; rat, plasma, po, 3 mg/kg, oral PU-48 SNEDDS 3 mg/kg): 7.1 ± 2.9 h
- Tmax ([1]; rat, plasma, po, 3 mg/kg, oral PU-48 SNEDDS 3 mg/kg, read-out: Tmax): 1.2 ± 0.9 h
- half-life ([1]; rat, plasma, po, 6 mg/kg, oral PU-48 SNEDDS 6 mg/kg): 7 ± 2.7 h
- Tmax ([1]; rat, plasma, po, 6 mg/kg, oral PU-48 SNEDDS 6 mg/kg, read-out: Tmax): 0.6 ± 0.3 h
- half-life ([1]; rat, plasma, po, 12 mg/kg, oral PU-48 SNEDDS 12 mg/kg): 6.9 ± 3.5 h
- Tmax ([1]; rat, plasma, po, 12 mg/kg, oral PU-48 SNEDDS 12 mg/kg, read-out: Tmax): 0.5 ± 0.27 h
- Accumulative Excretion Amount, urine ([2]; 24–36 h): 1058.2 ± 684.1 ng
- Accumulative Excretion Amount, urine ([2]; 36–48 h): 1216.6 ± 716.3 ng
- Accumulative Excretion Percentage, urine ([2]; 36–48 h): 0.0436 ± 0.0261%
SMILES: COC(=O)c1sc2nc3ccc(OC)cc3cc2c1N [PU-48, Methyl 3-amino-6-methoxythieno [2,3-b] quinoline-2-carboxylate]
- Mean plasma concentration at the 48 h time point ([1]; rat, oral 3, 6 and 12 mg/kg, LLOQ 0.1 ng/mL): below the lower limit of quantitation (LLOQ)
